Source: BindingDB's records for patent US11897898 (Biogen Ma, 2024)

Biological target: T1, Mitogen-activated protein kinase kinase kinase 5 (Homo sapiens, UniProt Q99683)
T1 sequence (Q99683 whole entry): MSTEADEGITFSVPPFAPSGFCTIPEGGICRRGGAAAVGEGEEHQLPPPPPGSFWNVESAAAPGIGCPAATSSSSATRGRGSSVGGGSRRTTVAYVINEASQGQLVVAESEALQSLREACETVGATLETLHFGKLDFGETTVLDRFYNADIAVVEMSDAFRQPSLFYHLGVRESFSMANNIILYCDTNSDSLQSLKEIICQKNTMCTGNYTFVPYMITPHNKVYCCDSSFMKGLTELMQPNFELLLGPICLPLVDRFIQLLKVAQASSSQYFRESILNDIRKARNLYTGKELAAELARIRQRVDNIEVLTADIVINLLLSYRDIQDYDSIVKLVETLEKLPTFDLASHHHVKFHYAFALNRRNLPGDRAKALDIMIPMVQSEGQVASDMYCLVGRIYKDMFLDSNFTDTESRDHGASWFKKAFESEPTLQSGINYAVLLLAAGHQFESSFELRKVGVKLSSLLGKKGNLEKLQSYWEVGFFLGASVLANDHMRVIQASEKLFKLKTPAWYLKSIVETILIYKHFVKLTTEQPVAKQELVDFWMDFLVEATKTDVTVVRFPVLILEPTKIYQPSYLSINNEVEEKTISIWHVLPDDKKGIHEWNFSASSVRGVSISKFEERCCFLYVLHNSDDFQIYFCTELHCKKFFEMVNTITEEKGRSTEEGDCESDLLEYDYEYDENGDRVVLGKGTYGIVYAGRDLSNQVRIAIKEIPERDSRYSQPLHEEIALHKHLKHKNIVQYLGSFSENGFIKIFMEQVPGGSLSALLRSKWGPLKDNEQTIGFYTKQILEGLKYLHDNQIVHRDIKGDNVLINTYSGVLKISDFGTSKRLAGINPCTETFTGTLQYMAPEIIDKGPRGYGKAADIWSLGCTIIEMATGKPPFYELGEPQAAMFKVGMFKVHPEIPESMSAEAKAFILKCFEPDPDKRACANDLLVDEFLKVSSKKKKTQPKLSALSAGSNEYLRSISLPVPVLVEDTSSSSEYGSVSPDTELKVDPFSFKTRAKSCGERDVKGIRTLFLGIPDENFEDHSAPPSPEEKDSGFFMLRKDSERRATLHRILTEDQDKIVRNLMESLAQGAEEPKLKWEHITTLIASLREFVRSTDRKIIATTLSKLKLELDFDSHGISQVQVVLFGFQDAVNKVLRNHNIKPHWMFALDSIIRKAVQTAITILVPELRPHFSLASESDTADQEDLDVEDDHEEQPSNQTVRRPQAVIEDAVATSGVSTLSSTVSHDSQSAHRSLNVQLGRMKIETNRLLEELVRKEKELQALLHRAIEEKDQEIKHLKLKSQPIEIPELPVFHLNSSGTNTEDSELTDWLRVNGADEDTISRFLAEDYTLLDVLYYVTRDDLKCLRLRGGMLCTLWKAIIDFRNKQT
Experiment: ASK1 Enzyme Assay
Procedure: The protein kinase inhibitory activity of the compounds described herein were tested using the ASK1/MAP3K5 assay by Reaction Biology Corp. (Malvern, Pa.). The assay procedure follows (and is also available on the Reaction Biology Corp. website).Base Reaction Buffer: 20 mM Hepes (pH 7.5), 10 mM MgCl2, 1 mM EGTA,0.02% Brij35, 0.02 mg/mL BSA, 0.1 mM Na3VO4, 2 mM DTT, 1% DMSO;Substrate: 20 μM of myelin basic protein (MBP) and 10 μM ATP;Protein kinase: ASK1/MAP3K5.Reaction Procedure:1. Prepare indicated substrate in freshly prepared Base Reaction Buffer.2. Deliver any required cofactors to the substrate solution.3. Deliver indicated kinase into the substrate solution and gently mix.4. Deliver compounds in DMSO into the kinase reaction mixture by Acoustic; technology (Echo550; nanoliter range), incubate for 20 minutes at room temperature.5. Deliver 33P-ATP (specific activity 10 μCi/μL) into the reaction mixture to initiate the reaction.6. Incubate kinase reaction for 2 hours at room temperature.7. Reactions are spotted onto P81 ion exchange paper.8. Detect kinase activity by filter-binding method.

SMILES	IC50
C[C@@H]1CCCOc2ncc(N3CCOCC3)cc2C(=O)Nc2cccc(n2)-c2nncn21 [US11897898, Example 6]	in the range around 550 nM
C[C@@H]1CCCOc2ncc(-c3ccncc3)cc2C(=O)Nc2cccc(n2)-c2nncn21 [US11897898, Example 18]	in the range around 550 nM
